Test results taken from patent US20260216134A1, “CHARGED PI-CONJUGATED MOLECULES FOR THE TREATMENT OF MICROBIAL INFECTIONS” (priority 2023, published 2026).

Experiments:
[1] = test system: A375 cancer cells (melanoma); experiment: Crystal violet cytotoxicity test in A375 cells without light activation; format: cell-based, human
Procedure: The inhibitory concentration of charged pi-conjugated compounds needed to inhibit the cell growth by 50% (toxicity IC50).
Most of the charged pi-conjugated compounds are aminocyanines which are functionalized with alkyl amine group. The charged pi-conjugated compounds were added to cell cultures of A375 cancer cells (human melanoma) and their cytotoxicity was quantified by the crystal violet test and/or clonogenic assays for cell viability. […] The longer the exposure the most cytotoxic the charged pi-conjugated compounds are towards A375 cells. […] The same behavior is observed: the longer the exposure, the more cytotoxic. All molecules presented here are aminocyanines except GL-261-2 which is a carboxyl-cyanine. […] This was the first time a therapeutic window of concentration that can be tuned to selectively kill cancer and/or protect cells was suspected. In finding this therapeutic window concentration and time of exposure are important variables that should be fine tuned.
Based on the finding described above, a larger set of charged pi-conjugated compounds was evaluated for cytotoxicity against A375 cancer cells as shown in FIG. 25 and FIG. 26.
The IC50 is the concentration needed to inhibit the cell viability by 50%. These molecules in FIG. 25 and FIG. 26 were evaluated by crystal violet assay and using 2 days of exposure.

S. aureus ATCC 25923 = experiment: Single-step isolation of spontaneous resistant mutants; format: cell-based, Staphylococcus aureus
Text: FIGS. 10A-10C show the development of resistance and mutation rate of bacterial strains subjected to repeated exposure to charged pi-conjugated compounds. (FIG. 10A) Stepwise development of resistance in B. cereus CECT131123, E. faecalis ATCC 29212, S. aureus ATCC 25923, and S. pneumoniae ATCC 49619. Bacterial strains were repeatedly exposed to charged pi-conjugated compounds or the conventional antibiotics ciprofloxacin (CIP), linezolid (LNZ) and vancomycin (VAN) for over 30 cycles. The y-axis indicates the MIC fold change, reflecting increased resistance over repeated treatment. (FIG. 10B) Mutation rate, represented as the frequency of rifampin-resistant cells, in S. aureus ATCC 25923 subjected to repeated cycles of treatment with charged pi-conjugated compounds or the conventional antibiotic ciprofloxacin (CIP). (FIG. 10C) Single-step resistance assessment of spontaneous mutants. […]
To estimate the occurrence of spontaneous charged pi-conjugated compound-resistant mutants, S. aureus cells cultured overnight were resuspended in PBS to yield 10^10 cells mL^−1 and then plated on both selective (charged pi-conjugated compound-containing) and non-selective LB agar plates. After incubation at 37° C. for 24-48 hours, colonies were counted, and the frequency of charged pi-conjugated compound-resistant mutants was calculated. […]

C[N+]1=C(/C=C/C2=CC(=C/C=C3/N(CCCCCC(=O)NCCCCCCN)c4ccc5ccccc5c4C3(C)C)/CCC2)C(C)(C)c2c1ccc1ccccc21.Cl.[Cl-] [Cy7.5-amine, Cyanine 7.5-amine]
IC50 [1]: 500 nM
cytotoxicity at short exposure [1]: safe and showed low cytotoxicity
MIC of spontaneous resistant mutants (S. aureus ATCC 25923; mutants propagated on fresh plates, compared with WT strain): MIC indistinguishable from that of the WT
spontaneous mutation rate (S. aureus ATCC 25923; plates containing 4×, 8×, 16×MIC, resistant CFU / total CFU): ≤ 10^−6
